Read-outs that look alike come from different tables or passages of the source.
Key:
[1] = Observed compound solubility; format: physicochemical; details: assay conditions / 100% DMSO
Experimental: Therefore, they were counter-screened at 100 µM in a secondary gel-based assay (Supplementary Fig. S1).
To confirm RdRp inhibition and to exclude any potential false positives from the first fluorescence RdRp assay, the eight selected compounds (Fig. 4C) were then assessed using a gel-shift enzyme activity assay.
Dose-dependent inhibitory response curves were used to establish IC50 values for the five test compounds (Table 2). […] Therefore, 42b was too insoluble to attain a reliable confidence interval in the dose-response experiments and was not examined further. However, from the other four compounds, hit 11 and its phenyl derivative 54 gave the lowest IC50 values, 3–5 fold improved compared with 13 and its derivative 42a, confirming increased RdRp inhibitory activity associated with this scaffold.

[2] = biological target: human norovirus Sydney 2012 RdRp (Norovirus GII.4 (Norwalk virus, human norovirus), UniProt K4L8Z7); assay: Fluorescent de novo RdRp activity assay (PicoGreen, poly(C) template); format: biochemical; details: for inhibition at 100 µM: read-out: inhibition of human norovirus RdRp activity, 100 µM
Experimental: The 62 compounds identified in silico were screened for inhibition of norovirus RdRp activity using an in vitro fluorescent, de novo RdRp assay. Compounds were tested at fixed concentrations of 10 µM and 100 µM, and compared to mock treated samples containing the vehicle only (0.5% DMSO [vol/vol]) (Fig. 4A,B). […] For certain compounds, significant insolubility was observed, coupled with either inherent fluorescence quenching (positive y-axis values on Fig. 4A,B) or enhancement of the fluorescence signal (negative y-axis values).
The newly synthesised compounds, including the re-prepared hit 13 and some synthesis intermediates (Table 1), were initially evaluated on norovirus Sydney 2012 RdRp activity in vitro using a quantitative fluorescent assay. Compounds were tested at a fixed concentration of 10 μM and compared to the relative activity of mock treated samples.
Recombinant calicivirus RdRps (GenBank accession numbers) norovirus GII.Pe/GII.4 Sydney 2012 (KT239579), MNV GV CW1 (DQ285629), RHDV Czech V351 (KF594473.1), and SaV GI.1 Mc114 (AY237422) were expressed and purified as described previously[60],[61]. RdRp resistance mutants were generated using the QuikChange site-directed mutagenesis kit (Agilent Technologies, Santa Clara, CA, USA) and confirmed by Sanger sequencing.
(§1) Fluorescent RdRp activity assays were carried out as previously described[14],[62]. Briefly, RdRp activity was quantified by monitoring the formation of double-stranded RNA (dsRNA) from a single stranded homopolymeric template, poly(C) (Sigma Aldrich, St Louis, MO, USA), using the fluorescent dye PicoGreen (Life Technologies, Carlsbad, CA, USA). RdRp assays were performed in 384-well plates, and each reaction mixture contained 400 ng enzyme, 45 µM GTP, 10 ng/µL poly(C) RNA, 2.5 mM MnCl2, 5 mM dithiothreitol, (DTT), 0.01% bovine serum albumin (BSA), and 0.005% Tween 20 in 20 mM Tris-HCl, pH 7.5, with a final reaction volume of 25 µL. The previous published norovirus NNI NIC02 was used as a positive control. RdRps were incubated for 10 mins at 30 °C in the presence of the test compounds or the compound vehicle DMSO (0.5% vol/vol) before addition into the reaction mixture, which was then allowed to run 15 min at 30 °C then terminated with 10 mM EDTA, followed by PicoGreen staining and dsRNA quantitation. GraphPad Prism V6.05 (La Jolla, CA, USA) was used to plot the IC50 values. In cases where fluorescent enhancement was recorded for a compound instead of inhibition, a secondary gel-based polymerase activity assay was used as a counter-screen as described below, to exclude the possibility of RdRp activity enhancement (Supplementary Fig. S1). Primed elongation activity was examined in a gel-based assay as previously described[16],[63] using the RNA template (PE44-NoV, Fig. 4D). Gels were imaged using BioRad (Hercules, CA, U.SA) Geldoc Universal Hood II, running BioRad Image Lab software, V4.1, build 16. Antagonism was calculated using Compusyn software V1.0[59]. 54 and PPNDS (4:1 ratio) were tested alone and together against norovirus Sydney 2012 RdRp.

MNV RdRp = biological target: T1, MNV RdRp (Norovirus, UniProt Q80J95); assay: Fluorescent RdRp activity assay, MNV RdRp; format: biochemical, murine norovirus; details: fixed concentration of 100 µM
T1 construct: made in house
Description: The antiviral activity of the four compounds (11, 13, 42a and 54) were examined for inhibition of RNA polymerases from other viruses spanning three genera of the Caliciviridae family, including Norovirus (human norovirus and MNV), Lagovirus (rabbit haemorrhagic disease virus [RHDV]) and Sapovirus (human sapovirus). […] The protein sequence of the examined calicivirus polymerases has an identity range between 30.2–61.4%, and therefore the broad-spectrum activity of these compounds could be attributed to a common, highly-conserved binding pocket across the RdRps, as has been previously reported with broad-spectrum activity of other site-B binding NNIs[16]. Moreover, the ability of each compound to inhibit the different RdRps in a similar range could be further confirmation of targeting a well-conserved binding site of the Caliciviridae family.
Recombinant calicivirus RdRps (GenBank accession numbers) norovirus GII.Pe/GII.4 Sydney 2012 (KT239579), MNV GV CW1 (DQ285629), RHDV Czech V351 (KF594473.1), and SaV GI.1 Mc114 (AY237422) were expressed and purified as described previously[60],[61]. […]
Fluorescent RdRp activity assays were carried out as previously described[14],[62]. Briefly, RdRp activity was quantified by monitoring the formation of double-stranded RNA (dsRNA) from a single stranded homopolymeric template, poly(C) (Sigma Aldrich, St Louis, MO, USA), using the fluorescent dye PicoGreen (Life Technologies, Carlsbad, CA, USA). […] RdRps were incubated for 10 mins at 30 °C in the presence of the test compounds or the compound vehicle DMSO (0.5% vol/vol) before addition into the reaction mixture, which was then allowed to run 15 min at 30 °C then terminated with 10 mM EDTA, followed by PicoGreen staining and dsRNA quantitation. […] In cases where fluorescent enhancement was recorded for a compound instead of inhibition, a secondary gel-based polymerase activity assay was used as a counter-screen as described below, to exclude the possibility of RdRp activity enhancement (Supplementary Fig. S1). […] Antagonism was calculated using Compusyn software V1.0[59]. […]

norovirus RdRp = assay: Counter-screen gel-shift RdRp assay (primed elongation of PE44-NoV template); format: biochemical, human norovirus; details: fixed concentration of 100 µM
Experimental: In this assay, a 32 nucleotide RNA template (PE44-NoV) is extended to 44 nucleotides in the presence of an active RdRp[16]. […] Inhibition of primed elongation of the PE44-NoV template was examined at a fixed concentration of 100 µM (Fig. 4D). In the absence of inhibition (0.5% DMSO vehicle only) the RNA template was extended to 44 nucleotides (Fig. 4D), evidenced by an upward gel shift and the appearance of the second, higher band.
as §1

MNV = MNV plaque reduction assay in cell culture; format: cell-based, murine norovirus
Experimental: As mentioned above, the only robust cellular assay available for the evaluation of potential norovirus inhibitors is the closely related MNV assay. […] Consequently, 54 was further assessed to determine the IC50 value against MNV RdRp activity using an in vitro fluorescent assay. […] 54 was then assessed for cytotoxicity against RAW264.7 mouse macrophage cells using a cell viability assay. […] Using the plaque reduction assay, the inhibitory effects of 54 (0.5–50 µM) were examined against MNV plaque formation in cell culture. […] Compound solubility and its cell-membrane permeability properties could be further improved with structure-activity relationship enhancement of the 54 scaffold to facilitate cellular uptake, and therefore to increase antiviral efficacy. Work on this aspect is ongoing, and it will be reported in due course.
MNV-1 (CW1) culture assays were performed as previously described. Replication was examined using plaque assays[58],[64],[65]. Cytotoxicity was examined using a CellTitre Blue (Promega, Madison, WI, USA) viability assay as described previously.

[3] = 10 µM, initial screen of purchased compounds
[4] = 100 µM, initial screen of purchased compounds
[5] = read-out: inhibition of human norovirus RdRp activity, 10 µM, initial screen of purchased compounds
[6] = initial screen of purchased compounds
[7] = read-out: inhibition of norovirus Sydney 2012 RdRp activity, 10 µM, secondary screen of newly synthesised compounds
[8] = 10 µM, secondary screen of newly synthesised compounds

In the case of `CCC(O)CC(C(=O)NNc1ccccc1)C(=O)NNc1ccccc1` (stereo not shown) [AE-562/12222591], the “solubility (observation)” value [1] is reported as “precipitated heavily in 100% DMSO”, the “inhibition of human norovirus RdRp activity” value [2, 3] is reported as “over 25%” and the “inhibition of human norovirus RdRp activity” value [2, 4] is reported as “over 25%”.

For `O=C(CN1C(=O)S/C(=C\c2ccc(-c3ccccc3)o2)C1=O)Nc1ccccc1` [Compound 42a], the inhibition at 100 µM (MNV RdRp) was 44.4%, the “inhibition of MNV RdRp activity” value (MNV RdRp; 100 µM) was under 50% and the “inhibition of primed elongation activity (gel-shift)” value (“inhibition … (gel-shift)” below) (norovirus RdRp) was “near complete abolishment of norovirus RdRp activity”. It also gave an IC50 [2] of 27.4 µM.

Work on `O=C(O)c1ccccc1-c1ccccc1C(=O)Nc1cccc(O)c1` [Compound 6] yielded an inhibition at 10 µM [2, 5] of over 25% and an inhibition at 100 µM [2, 6] of over 50%.

With `COC(=O)c1ccc(-c2ccc(/C=C3\SC(=O)N(CC(=O)Nc4ccccc4)C3=O)o2)cc1` [Compound 42b] the “solubility (observation)” value [1] was “significant solubility issues”, the “inhibition … (gel-shift)” value (norovirus RdRp) was “near complete abolishment of norovirus RdRp activity” and the inhibition at 10 µM [2, 7] was over 50%.

Work on `C/C(=N\NC(=O)c1ccccc1O)c1ccc(O)cc1O` [Compound 12] yielded an inhibition at 10 µM [2, 5] of over 25% and an inhibition at 100 µM [2, 6] of over 25%.

With `Cc1ccc(N2NC(=O)/C(=C\c3ccc(-c4ccc(S(=O)(=O)Nc5ccccc5)cc4)o3)C2=O)cc1` [Compound 55] the “inhibition … (gel-shift)” value (norovirus RdRp) was “minimal inhibition”.

In the case of `COc1cccc(NC(=O)Cn2nc(C(F)(F)F)cc2C2CC2)c1` [AK-968/41925073], the “solubility (observation)” value [1] is reported as “precipitated heavily in 100% DMSO”, the “inhibition of human norovirus RdRp activity” value [2, 3] is reported as “over 25%” and the “inhibition of human norovirus RdRp activity” value [2, 4] is reported as “over 25%”.

Work on `COC(=O)c1ccc(-c2ccc(/C=C3\SC(=O)N(CC(=O)N4CCCCC4)C3=O)o2)c(C)c1` [Compound 24d] yielded an inhibition at 10 µM [2, 7] of 25%.

With `O=C(CN1C(=O)S/C(=C\c2ccc(-c3ccccc3)o2)C1=O)N1CCOCC1` [Compound 23a] the “inhibition of norovirus Sydney 2012 RdRp activity” value [2, 8] was “complete loss of activity”.

For `COc1ccc(N2C(=O)c3ccc(C(=O)O)cc3C2=O)cc1NC(=O)c1ccccc1` [Compound 9], the inhibition at 10 µM [2, 5] was over 25% and the inhibition at 100 µM [2, 6] was over 50%.

In the case of `COC(=O)c1ccc(-c2ccc(/C=C3\SC(=O)N(CC(=O)N4CCCCC4)C3=O)o2)cc1` [Compound 24b], the “inhibition … (gel-shift)” value (norovirus RdRp) is reported as “no appreciable effect” and the inhibition at 10 µM [2, 7] is reported as 60%.

In the case of `Cc1ccc(N2NC(=O)C(=Cc3ccc(-c4ccc(S(=O)(=O)Nc5nccs5)cc4)o3)C2=O)cc1` [Compound 11], the “inhibition … (gel-shift)” value (norovirus RdRp) is reported as “complete inhibition”, the IC50 [2] is reported as 5 µM and the inhibition at 10 µM [2, 5] is reported as over 25%. For the same compound, the inhibition at 100 µM [2, 6] was over 50%, the inhibition at 10 µM (MNV; 10 µM, read-out: inhibition of MNV plaque formation) was 37.1% and the “cytotoxicity seen in plaque assay” value (MNV; 100 µM) was “cytotoxic”.

In the case of `Cc1cc(C(=O)O)ccc1-c1ccc(/C=C2\SC(=O)N(CC(=O)N3CCOCC3)C2=O)o1` [Compound 13], the “inhibition … (gel-shift)” value (norovirus RdRp) is reported as “complete inhibition”, the IC50 [2] is reported as 15 µM and the inhibition at 10 µM [2, 5] is reported as over 25%. It also gave an inhibition at 100 µM [2, 6] of over 50%, an inhibition at 10 µM [2, 7] of 25% and an inhibition at 100 µM (MNV; 100 µM, read-out: inhibition of MNV plaque formation) of 21%.

For `COC(=O)c1ccc(-c2ccc(/C=C3\SC(=O)N(CC(=O)N4CCOCC4)C3=O)o2)c(C)c1` [Compound 39d], the “inhibition of norovirus Sydney 2012 RdRp activity” value [2, 8] was “complete loss of activity”.
